Assays:
LN229 cells = test: Wound healing assay, LN229; assay type: cell-based, human; settings: LN229, IC50 dose, 72 h
[1] = Solubility in organic solvents (qualitative); assay type: physicochemical
B16 mouse melanoma = test: MTT cell viability assay, B16; assay type: cell-based; settings: 72 h
From the text: (§1) Thus, care must be taken when comparing their biological activities with those of our previous studies, even with the same cell line, because the covalent vs. non‐covalent combination of drugs might imply different mechanisms of action in the cell.44 Here, we studied the in vitro activity of ruthenacarborane 3, i. e. free acid, and its 8‐hydroxyquinolyl (4) and 4‐{(7‐chloroquinolin‐4‐yl)oxy}butanol‐1‐yl (5) esters, against a panel of cancer cell lines (B16 mouse melanoma, A375 human skin melanoma, MCF‐7 human breast adenocarcinoma, LN229 human glioblastoma, U251 human glioma). Human fibroblast cell line MRC‐5, murine microglial cell line BV‐2 as well as peritoneal exudate cells (Mph), were chosen as models for non‐malignant cells. […] On the other side, we wanted to assess the reproducibility of the viability data, under either controlled (with BSA) or uncontrolled (without BSA) conditions, in two sets of independent assays. […] Cells were exposed to 3–5 for 72 h, after which cell viability was determined via 3‐(4,5‐dimethylthiazol‐2‐yl)‐2,5‐diphenyltetrazolium bromide (MTT) and crystal violet (CV) assays, in parallel (Table 2). Cisplatin was also tested as reference.
(§2) Preparation of drug solutions. […] Stock solution of cisplatin was prepared in DMF (10 mM) immediately before use. A stock solution of BSA in PBS was prepared at 1.28 mM concentration, and stored at 4 °C in the dark. […] Alternatively, 3 or 4 (DMSO stock solution) were added to the BSA solution in PBS, always with a 10 : 1 molar ratio of BSA to ruthenacarborane. The BSA−ruthenacarborane solutions were incubated 0.5–1 h at room temperature, then diluted with cell culture medium to the desired final concentrations. Final concentrations of 3 and 4 were the same as for the BSA‐free formulation. Final DMSO was 0.02–0.5 vol %.
(§3) Colorimetric assays for cellular viability. […] For counting the number of attached (viable) cells, cells were fixed with 4 % (w/v) paraformaldehyde for 10 min at room temperature, and subsequently stained for 15 min with […] crystal violet (CV) solution. Cells were then washed with tap water, dried in air, and the CV dye was dissolved in 33 % (w/v) acetic acid solution. For the detection of mitochondrial respiration, cells were cultivated in MTT staining solution (0.5 mg mL^−1) for approximately 1 h. The dye was then discarded, and the formed formazan (purple) was dissolved in DMSO. The absorbance was measured with an automated microplate reader at λmax 540 nm, with the reference λmax 670 nm. Untreated cells or cells treated only with BSA (control) were also measured, as reference for BSA‐free and BSA‐containing drug formulations, respectively. […] Cell viability is expressed as percentage (%) relative to control (untreated cultures).58 Experiments were run in three independent replicates. […]

[2] = test system: U251 and LN229 cell lines; test: Cell viability assays (MTT, CV), summary for glioma and glioblastoma lines; assay type: cell-based, human; settings: 72 h
From the text: as §1
Preparation of drug solutions. […] Stock solution of cisplatin was prepared in DMF (10 mM) immediately before use. A stock solution of BSA in PBS was prepared at 1.28 mM concentration, and stored at 4 °C in the dark. […] Alternatively, 3 or 4 (DMSO stock solution) were added to the BSA solution in PBS, always with a 10 : 1 molar ratio of BSA to ruthenacarborane. […]
Colorimetric assays for cellular viability. […] The absorbance was measured with an automated microplate reader at λmax 540 nm, with the reference λmax 670 nm. Untreated cells or cells treated only with BSA (control) were also measured, as reference for BSA‐free and BSA‐containing drug formulations, respectively. […] Cell viability is expressed as percentage (%) relative to control (untreated cultures).58 Experiments were run in three independent replicates. […]

U251 human glioma = test: MTT cell viability assay, U251; assay type: cell-based; settings: 72 h
From the text: as §1, §2, §3

A375 human skin melanoma = test: MTT cell viability assay, A375; assay type: cell-based; settings: 72 h
From the text: as §1, §2, §3

LN229 human glioblastoma = test: Crystal violet (CV) cell viability assay, LN229; assay type: cell-based; settings: CV assay, 72 h; read-out: IC50 LN229
From the text: as §1, §2
Colorimetric assays for cellular viability. […] For counting the number of attached (viable) cells, cells were fixed with 4 % (w/v) paraformaldehyde for 10 min at room temperature, and subsequently stained for 15 min with […] crystal violet (CV) solution. Cells were then washed with tap water, dried in air, and the CV dye was dissolved in 33 % (w/v) acetic acid solution. For the detection of mitochondrial respiration, cells were cultivated in MTT staining solution (0.5 mg mL^−1) for approximately 1 h. The dye was then discarded, and the formed formazan (purple) was dissolved in DMSO. The absorbance was measured with an automated microplate reader at λmax 540 nm, with the reference λmax 670 nm. Untreated cells or cells treated only with BSA (control) were also measured, as reference for BSA‐free and BSA‐containing drug formulations, respectively. For determination of the role of autophagy specific inhibitors, CQ or 3‐MA, were applied at a concentration of 20 μM and 0.5 mM, respectively, and the cells were stained with CV dye. Cell viability is expressed as percentage (%) relative to control (untreated cultures).58 Experiments were run in three independent replicates. […] Non‐linear regression analyses of the obtained results was done using GraphPad Prism software to calculate IC50 values.
mouse microglial cell line BV‐2 was a kind gift from Dr. Irena Lavrnja, Institute for Biological Research
“Siniša Stanković” (University of Belgrade).

Row | Substance | cell motility (wound healing assay, in words) (LN229 cells) | solubility in organic solvents (in words) [1] | IC50 (B16 mouse melanoma) [µM] | IC50 ([2]; range over both cell lines, depending on assay and formulation type, read-out: IC50 concentrations against U251 and LN229) [µM] | IC50 (U251 human glioma) [µM] | IC50 (A375 human skin melanoma) [µM] | IC50 (LN229 human glioblastoma) [µM] | activity against LN229 and U251 (in words) ([2]; concentration range tested up to 100 μM)
1 | closo ‐[3‐(η^6‐p‐Cymene)‐1‐(quinolin‐8‐yl‐acetate)‐3,1,2‐RuC2B9H10] [Compound 4] | inhibited motility | soluble in dichloromethane, chloroform, acetone and DMSO | 20.4 ± 2.1 | 33 to 45 | 46.2 ± 1.9 | 11.9 ± 1.2 | 33.4 ± 3.5 | –
2 | closo‐ [Compound 3, closo‐ [3‐(η^6‐p‐Cymene)‐1‐(CH2COOH)‐3,1,2‐RuC2B9H10]] | inhibited motility | soluble in acetone, THF, acetonitrile and DMSO, moderately soluble in chloroform and dichloromethane | 19.4 ± 0.9 | – | > 100 | 9.7 ± 1.1 | 80 ± 7.7 | inactive

— PMC6973020, “Quinoline‐Conjugated Ruthenacarboranes: Toward Hybrid Drugs with a Dual Mode of Action” (Chemmedchem, 2019)
